Experimental data: paper PMC10290391, “Targeted degradation of ⍺-synuclein aggregates in Parkinson’s disease using the AUTOTAC technology” (Molecular Neurodegeneration, 2023)
≈ marks a conversion by molar mass, not a printed value.

How the values were obtained:
[1] = tested on: HEK293A cells transduced with h-α-syn PFFs; assay: Immunocytochemistry in HEK293A cells transduced with h-α-syn PFFs; format: cell-based, human; conditions: 1 μM, 24 h
Description: Recombinant human α-syn (1–140) were obtained from NKMAX (SNA2001L). In vitro fibrillization was performed by diluting recombinant α-syn monomers to 1 mg/mL in sterile PBS, then incubating at 37 °C with constant agitation at 1,000 rpm for seven days. The fibrillization was verified by thioflavin T and sedimentation assays. The ability to form phospho-α-syn (S129) was also assessed by immunocytochemistry. In addition, to determine whether the generated PFFs act as seeds to accumulate endogenous α-syn, an adenovirus that expresses c-Myc-His-tagged human α-syn (gifted from lab of S.J.L) was used to infect cultured cells at an MOI of 10, followed by a fractionation assay. The administration of PFFs into 293A cells was done with protein delivery reagent (BioPORTER QuikEase Protein Delivery Kit, Sigma) following the provider’s instruction. The mouse α-syn PFFs were obtained from StressMarq (SPR-324). Prior to treatment, PFFs were sonicated at 20% amplitude, 1 s pulse on and off for 30 s (SONICS Vibra Cell sonicator, Merck Z412619). For cells, α-syn monomers and PFFs were transduced at 1 µg/mL.
Cells were fixed with 4% paraformaldehyde (PFA) for 20 min at room temperature, followed by permeabilization with 0.1% Triton X-100 buffer for 15 min. The cells were blocked with 2% bovine serum albumin (BSA) in PBS for 1 h at room temperature. Then, the cells were incubated with primary antibodies diluted in the blocking buffer overnight at 4 °C. After washing with PBS, the slides were incubated with AlexaFluor-conjugated secondary antibodies for 1 h at room temperature. After mounting the slides with mounting solution containing DAPI, the images were captured on an LSM700 confocal microscopy (Carl Zeiss).

[2] = Pharmacokinetics of ATL compounds after oral administration in ICR male mice; format: in vivo; conditions: 5 mg/kg oral
Description: Supplementary file 13024_2023_630_MOESM1_ESM.eps: Additional file 1: Supplementary figure 1. Drug profiles of ATL and Autotac compounds. A, drug profiles of ATL compounds. Tissue concentrations and oral bioavailability were measured in ICR male mice upon 5 mg/kg oral administration of each ATL compound. B, structures of ATC161~164. C, Pharmacokinetic study of ATC161 conducted in male ICR mice otherwise indicated. M.W. represents molecular weight. The plasma exposure and the half-life were determined upon either POor IPATC161 administration. The drug tissue exposure was determined in Tau301L BiFC mice. IV refers to intravenous injection.

p62 = p62 self-oligomerization and LC3 synthesis/lipidation by ATLs (in vitro p62 aggregation assay, rat cortex primary neurons); format: cell-based; conditions: ATL7, ATL13, ATL21 compared; 1 μM, 24 h in neurons, 1 mM in lysates
p62 and α-syn aggregates = biological target: T1, p62 and α-syn aggregates (Homo sapiens, UniProt P37840+Q13501); assay: Proximity ligation assay (PLA) of p62 and α-syn in HEK293A cells; format: cell-based; conditions: α-syn PFF-transduced cells; 1 μM, 6 h
T1 construct: Recombinant human α-syn (1–140) were obtained from NKMAX (SNA2001L); endogenous in cells; host or cells: HEK293A cells transduced with h-α-syn PFFs
Description: Proximity ligation assays were conducted using a PLA kit (Sigma-Aldrich) according to the manufacturer’s protocol. 293A Cells were seeded on coverslips and cultured for 24 h. After fixation with 4% PFA, the cells were permeabilized with 0.1% Triton X-100. The cells were incubated with antibodies for p62 (Abcam; ab56319) and alpha-synuclein aggregates (Abcam; ab209538) overnight at 4 °C. After washing with PLA washing buffer, the cells were hybridized, ligated and amplified by rolling circle. Coverslips were mounted on slides using mounting medium containing DAPI, and the images were captured by confocal microscopy (Zeiss).

Solubility = format: physicochemical; conditions: pH 7.4
Plasma stability = format: in vitro ADME; conditions: after 120 min
Tyr residues of α-syn = biological target: Tyr residues of α-syn; set-up: method as in PMID 15096521; conditions: cited from earlier work
α-syn amyloids = biological target: α-syn amyloids; set-up: method as in PMID 17597573; conditions: cited from earlier work

For `OCCNCc1ccc(OCc2ccccc2)c(OCCCc2ccccc2)c1` [ATL7, 2-((4-(benzyloxy)-3-(3-phenylpropoxy)benzyl)amino)ethan-1-ol], the “increase in number of p62+LC3+ colocalizing puncta” value [1] was “approximately 81%”, the “targeting of α-syn to LC3+ autophagic membranes” value ([1]; absence and presence of bafilomycin A1) was “did not show significant activities” and the AUClast in brain [2] was 722.9 ng·h/g. The Kp ([2]; mouse, brain and plasma, brain vs plasma AUClast, read-out: B/P ratio) was ~3, the “relative activity to induce p62 self-oligomerization and LC3 synthesis and lipidation” value (p62) was “highest activities” and the “interaction between p62 and α-syn aggregates (PLA puncta)” value (p62 and α-syn aggregates) was “failed to enhance the interaction between p62 and α-syn aggregates”.
With `OCCNCc1cccc(OCc2ccc(F)cc2)c1` [ATL13, 2-((3-((4-fluorobenzyl)oxy)benzyl)amino)ethan-1-ol] the solubility (Solubility) was 106 µg/mL (≈ 383 µM) and the “plasma stability, remaining” value (Plasma stability) was 96.3%.
For `OCCNC[C@@H](O)COc1ccc(OCc2ccc(F)cc2)c(OCc2ccc(F)cc2)c1` [ATL21, (R)-1-(3,4-bis((4-fluorobenzyl)oxy)phenoxy)-3-((2hydroxyethyl)amino)propan-2-ol], the AUC(0-t) ([2]; mouse, plasma, read-out: oral bioavailability, AUClast) was 2590 ng·h/mL.
For `O=c1cc(-c2ccccc2)oc2cc(O)c(O)c(O)c12` [baicalein], the Kd (Tyr residues of α-syn) is listed as 0.5 µM.
In the case of `Oc1ccc(/C=C/c2cc(O)cc(O)c2)cc1` [resveratrol], the Kd (α-syn amyloids) is listed as 36.8 µM.
